Source: ChEMBL document CHEMBL1139935, “Discovery of novel indazole-linked triazoles as antifungal agents” (2007)
≈ marks a conversion by molar mass, not a printed value.

Experiments:
Candida tropicalis = test: Antifungal activity against Candida tropicalis ATCC 750 by broth microdilution assay; type: functional
Aspergillus niger = test: Antifungal activity against Aspergillus niger ATCC 9042 by broth microdilution assay; type: functional
Aspergillus terreus = test: Antifungal activity against Aspergillus terreus ATCC 28301 by broth microdilution assay; type: functional
Clavispora lusitaniae = test: Antifungal activity against Candida lusitaniae ATCC 42720 by broth microdilution assay; type: functional
Cryptococcus neoformans = test: Antifungal activity against Cryptococcus neoformans ATCC 24065 by broth microdilution assay
Pichia kudriavzevii = test: Antifungal activity against Candida krusei ATCC 6528 by broth microdilution assay; type: functional
Aspergillus fumigatus = test: Antifungal activity against Aspergillus fumigatus ATCC 16424 by broth microdilution assay; type: functional
Candida albicans = test: Antifungal activity against Candida albicans ATCC 36082 by broth microdilution assay; type: functional
Aspergillus flavus = test: Antifungal activity against Aspergillus flavus ATCC MYA-1004 by broth microdilution assay; type: functional
Nakaseomyces glabratus = test: Antifungal activity against Candida glabrata ATCC 34138 by broth microdilution assay; type: functional
Candida parapsilosis = test: Antifungal activity against Candida parapsilosis ATCC 21019 by broth microdilution assay; type: functional; details: Lodderomyces parapsilosis

SMILES	MIC80 (Candida tropicalis) [µg/mL]	MIC80 (Aspergillus niger) [µg/mL]	MIC80 (Aspergillus terreus) [µg/mL]	MIC80 (Clavispora lusitaniae) [µg/mL]	MIC80 (Cryptococcus neoformans) [µg/mL]	MIC80 (Pichia kudriavzevii) [µg/mL]	MIC80 (Aspergillus fumigatus) [µg/mL]	MIC80 (Candida albicans) [µg/mL]	MIC80 (Aspergillus flavus) [µg/mL]	MIC80 (Nakaseomyces glabratus) [µg/mL]	MIC80 (Candida parapsilosis) [µg/mL]
C[C@@H](n1ncc2cc(F)ccc21)[C@](O)(Cn1cncn1)c1ccc(F)cc1F	0.25 (≈ 0.645 µM)	8 (≈ 20.7 µM)	4 (≈ 10.3 µM)	≤ 0.015	0.063 (≈ 0.163 µM)	1 (≈ 2.58 µM)	4 (≈ 10.3 µM)	≤ 0.015	4 (≈ 10.3 µM)	4 (≈ 10.3 µM)	0.125 (≈ 0.323 µM)
C[C@@H](n1cc2ccc([N+](=O)[O-])cc2n1)[C@](O)(Cn1cncn1)c1ccc(F)cc1F	8 (≈ 19.3 µM)	64 (≈ 154 µM)	128 (≈ 309 µM)	0.5 (≈ 1.21 µM)	0.5 (≈ 1.21 µM)	> 8	32 (≈ 77.2 µM)	0.063 (≈ 0.152 µM)	32 (≈ 77.2 µM)	> 8	0.25 (≈ 0.603 µM)
C[C@@H](n1ncc2cc(N(C)C)ccc21)[C@](O)(Cn1cncn1)c1ccc(F)cc1F	0.5 (≈ 1.21 µM)	2 (≈ 4.85 µM)	2 (≈ 4.85 µM)	0.063 (≈ 0.153 µM)	0.25 (≈ 0.606 µM)	1 (≈ 2.42 µM)	1 (≈ 2.42 µM)	0.063 (≈ 0.153 µM)	1 (≈ 2.42 µM)	8 (≈ 19.4 µM)	0.5 (≈ 1.21 µM)
C[C@@H](n1ncc2cc(Br)ccc21)[C@](O)(Cn1cncn1)c1ccc(F)cc1F	1 (≈ 2.23 µM)	4 (≈ 8.92 µM)	4 (≈ 8.92 µM)	≤ 0.015	≤ 0.015	2 (≈ 4.46 µM)	2 (≈ 4.46 µM)	≤ 0.015	4 (≈ 8.92 µM)	4 (≈ 8.92 µM)	0.125 (≈ 0.279 µM)
C[C@@H](n1ncc2ccc([N+](=O)[O-])cc21)[C@](O)(Cn1cncn1)c1ccc(F)cc1F	≤ 0.015	4 (≈ 9.65 µM)	2 (≈ 4.83 µM)	≤ 0.015	0.25 (≈ 0.603 µM)	0.5 (≈ 1.21 µM)	2 (≈ 4.83 µM)	≤ 0.015	2 (≈ 4.83 µM)	8 (≈ 19.3 µM)	≤ 0.015
CCc1nn([C@H](C)[C@](O)(Cn2cncn2)c2ccc(F)cc2F)c2ccc(F)cc12	2 (≈ 4.81 µM)	> 16	> 16	0.063 (≈ 0.152 µM)	0.125 (≈ 0.301 µM)	2 (≈ 4.81 µM)	16 (≈ 38.5 µM)	≤ 0.015	> 16	4 (≈ 9.63 µM)	0.125 (≈ 0.301 µM)
C[C@@H](n1cc2c([N+](=O)[O-])cccc2n1)[C@](O)(Cn1cncn1)c1ccc(F)cc1F	1 (≈ 2.41 µM)	4 (≈ 9.65 µM)	1 (≈ 2.41 µM)	0.125 (≈ 0.302 µM)	0.063 (≈ 0.152 µM)	4 (≈ 9.65 µM)	1 (≈ 2.41 µM)	≤ 0.015	2 (≈ 4.83 µM)	> 8	0.25 (≈ 0.603 µM)
C[C@@H](n1cnc2cc(Cl)ccc2c1=O)[C@](O)(Cn1cncn1)c1ccc(F)cc1F [ALBACONAZOLE]	0.031 (≈ 0.0718 µM)	2 (≈ 4.63 µM)	1 (≈ 2.32 µM)	≤ 0.015	≤ 0.015	0.25 (≈ 0.579 µM)	0.5 (≈ 1.16 µM)	≤ 0.015	0.5 (≈ 1.16 µM)	8 (≈ 18.5 µM)	≤ 0.015
C[C@@H]1[C@H](O)[C@@H](C)/C=C/C=C/C=C/C=C/C=C/C=C/C=C/[C@H](O[C@@H]2O[C@H](C)[C@@H](O)[C@H](N)[C@@H]2O)C[C@@H]2O[C@](O)(C[C@@H](O)C[C@@H](O)[C@H](O)CC[C@@H](O)C[C@@H](O)CC(=O)O[C@H]1C)C[C@H](O)[C@H]2C(=O)O [AMPHOTERICIN B]		0.5 (≈ 0.541 µM)	2 (≈ 2.16 µM)				1 (≈ 1.08 µM)		4 (≈ 4.33 µM)		

Second part, the molecule after the results:

MIC80 (Candida tropicalis) [µg/mL]	MIC80 (Aspergillus niger) [µg/mL]	MIC80 (Aspergillus terreus) [µg/mL]	MIC80 (Clavispora lusitaniae) [µg/mL]	MIC80 (Cryptococcus neoformans) [µg/mL]	MIC80 (Pichia kudriavzevii) [µg/mL]	MIC80 (Aspergillus fumigatus) [µg/mL]	MIC80 (Candida albicans) [µg/mL]	MIC80 (Aspergillus flavus) [µg/mL]	MIC80 (Nakaseomyces glabratus) [µg/mL]	MIC80 (Candida parapsilosis) [µg/mL]	SMILES
0.125 (≈ 0.323 µM)	1 (≈ 2.58 µM)	0.5 (≈ 1.29 µM)	≤ 0.015	0.063 (≈ 0.163 µM)	0.5 (≈ 1.29 µM)	0.25 (≈ 0.645 µM)	≤ 0.015	0.5 (≈ 1.29 µM)	4 (≈ 10.3 µM)	0.031 (≈ 0.08 µM)	C[C@@H](n1cc2cc(F)ccc2n1)[C@](O)(Cn1cncn1)c1ccc(F)cc1F
0.031 (≈ 0.0768 µM)	1 (≈ 2.48 µM)	0.5 (≈ 1.24 µM)	≤ 0.015	0.015 (≈ 0.0371 µM)	0.125 (≈ 0.31 µM)	0.25 (≈ 0.619 µM)	≤ 0.015	0.5 (≈ 1.24 µM)	4 (≈ 9.91 µM)	≤ 0.015	C[C@@H](n1cc2cc(Cl)ccc2n1)[C@](O)(Cn1cncn1)c1ccc(F)cc1F
1 (≈ 2.39 µM)	> 16	> 16	≤ 0.015	0.25 (≈ 0.598 µM)	2 (≈ 4.79 µM)	> 16	≤ 0.015	> 16	4 (≈ 9.57 µM)	0.125 (≈ 0.299 µM)	Cc1nn([C@H](C)[C@](O)(Cn2cncn2)c2ccc(F)cc2F)c2ccc(Cl)cc12
1 (≈ 2.6 µM)			0.25 (≈ 0.65 µM)	1 (≈ 2.6 µM)	8 (≈ 20.8 µM)		0.25 (≈ 0.65 µM)		> 8	2 (≈ 5.2 µM)	C[C@@H](n1ncc2cc(N)ccc21)[C@](O)(Cn1cncn1)c1ccc(F)cc1F
4 (≈ 9.34 µM)	16 (≈ 37.3 µM)	8 (≈ 18.7 µM)	0.063 (≈ 0.147 µM)	0.25 (≈ 0.584 µM)	4 (≈ 9.34 µM)	4 (≈ 9.34 µM)	0.015 (≈ 0.035 µM)	16 (≈ 37.3 µM)	8 (≈ 18.7 µM)	0.125 (≈ 0.292 µM)	Cc1nn([C@H](C)[C@](O)(Cn2cncn2)c2ccc(F)cc2F)c2ccc([N+](=O)[O-])cc12
4 (≈ 9.97 µM)	16 (≈ 39.9 µM)	4 (≈ 9.97 µM)	0.125 (≈ 0.311 µM)	0.5 (≈ 1.25 µM)	4 (≈ 9.97 µM)	4 (≈ 9.97 µM)	0.031 (≈ 0.0772 µM)	8 (≈ 19.9 µM)	8 (≈ 19.9 µM)	0.5 (≈ 1.25 µM)	Cc1nn([C@H](C)[C@](O)(Cn2cncn2)c2ccc(F)cc2F)c2ccc(F)cc12
≤ 0.015	4 (≈ 9.65 µM)	2 (≈ 4.83 µM)	≤ 0.015	0.125 (≈ 0.302 µM)	0.5 (≈ 1.21 µM)	2 (≈ 4.83 µM)	≤ 0.015	1 (≈ 2.41 µM)	4 (≈ 9.65 µM)	≤ 0.015	C[C@@H](n1ncc2cccc([N+](=O)[O-])c21)[C@](O)(Cn1cncn1)c1ccc(F)cc1F
							1 (≈ 2.78 µM)				NN(Cc1ccccc1)C[C@](O)(Cn1cncn1)c1ccc(F)cc1F
							2 (≈ 4.08 µM)				C[C@@H](n1nc(-c2ccccc2)c2cc([N+](=O)[O-])ccc21)[C@](O)(Cn1cncn1)c1ccc(F)cc1F
> 8	> 16	> 16	0.25 (≈ 0.623 µM)	0.5 (≈ 1.25 µM)	8 (≈ 19.9 µM)	16 (≈ 39.9 µM)	0.031 (≈ 0.0772 µM)	> 16	> 8	0.5 (≈ 1.25 µM)	Cc1nn([C@H](C)[C@](O)(Cn2cncn2)c2ccc(F)cc2F)c2cc(F)ccc12
0.5 (≈ 1.24 µM)	8 (≈ 19.8 µM)	4 (≈ 9.91 µM)	≤ 0.015	0.031 (≈ 0.0768 µM)	2 (≈ 4.95 µM)	2 (≈ 4.95 µM)	≤ 0.015	4 (≈ 9.91 µM)	4 (≈ 9.91 µM)	0.125 (≈ 0.31 µM)	C[C@@H](n1ncc2cc(Cl)ccc21)[C@](O)(Cn1cncn1)c1ccc(F)cc1F
≤ 0.015	2 (≈ 4.83 µM)	1 (≈ 2.41 µM)	≤ 0.015	0.031 (≈ 0.0748 µM)	1 (≈ 2.41 µM)	1 (≈ 2.41 µM)	≤ 0.015	2 (≈ 4.83 µM)	2 (≈ 4.83 µM)	0.031 (≈ 0.0748 µM)	C[C@@H](n1ncc2c([N+](=O)[O-])cccc21)[C@](O)(Cn1cncn1)c1ccc(F)cc1F
